How the values were obtained:
IFN-γ = IFN-γ levels in sera upon i.v. glycolipid administration to BALB/c mice (ELISA); assay type: in vivo; design: IFN-γ levels, test 1 / IFN-γ levels, test 2 / IFN-γ levels, average / IFN-γ levels, Total: unit not given here; conditions: for IFN-γ/IL-4 (BALB/c): ratio calculated from Tables 1-6; for IFN-γ/IL-4 (BALB/c) / IFN-γ levels, average / IFN-γ levels, test 1 / IFN-γ levels, test 2 / IFN-γ levels, Total: BALB/c; for IFN-γ levels, average / IFN-γ levels, test 1 / IFN-γ levels, test 2 / IFN-γ levels, Total: serum; for IFN-γ levels, Total: total over hours 0-72; for effect: higher/extended IFN-γ and IL-12 with much lower IL-4 compared to α-GalCer (KRN): C57BL/6 and BALB/c mice, 1 μg i.v.
Description: (§1) Five- to six-week-old female C57BL/6 mice and BALB/c mice were purchased from Taconic. Each glycolipid was stored at 1 mg/ml in 100% DMSO. Mice were injected intravenously with 1 μg of each glyocolipid diluted in 200 μL sterile phosphate buffered saline (PBS). At indicated time points, sera were collected from each animal, and concentrations of IFN-γ, IL-4, and IL-12 in the sera were evaluated by enzyme-linked immunosorbent assay (ELISA). Serum concentrations of IFN-γ, IL-4, and IL-12 were evaluated using an ELISA kit (eBioscience, San Diego, Calif.). Briefly, 96 well flat-bottom ELISA plates (NUNC) were coated with capture antibody according to the manufacture's recommendation and incubated overnight at 4° C. The plates were washed with PBS+0.05% Tween 20 (PBS-T), then incubated with manufacturer provided blocking solution for 1 hr at room temperature to block non-specific binding sites. After washing with PBS-T, sera diluted 1:10 was added to the wells and incubated for 2 hrs at room temperature. Plates were then incubated at room temperature for 1 hr with biotintylated detection antibody, washed, incubated with avidin conjugated to horse radish peroxidase (HRP) for 30 min at room temperature, washed, and finally incubated with tetramethylbenzidine substrate solution in the dark for 10 minutes at room temperature. The antibodies, avidin-HRP, and substrate solution were all diluted according to the manufacture's recommendation. Reactions were stopped with 2.0N sulfuric acid and the cytokine concentration in each well was determined by comparing the absorbance at 450 nm in each well to known standards. The levels of Th1- and Th2-type cytokines were determined in two different genetic backgrounds, i.e., in C57BL/6 mice and BALB/c mice. The following compounds were administered: A=compound (A-1 trans-conformer), B=compound (A-2), C=compound (A-3), D=compound (A-4), E=compound (A-5), Z=control (PBS alone), CRONY=α-C-GalCer, KRN=α-GalCer, GCK109 (A-1 trans-conformer), GCK151 (A-1 cis-conformer), GCK152 (A-7). The levels of cytokines were measured at 0, 2, 6, 12, 24, 48, and 72 hours after the compound administration. The levels of Th1-type cytokines IFN-γ and IL-12 are summarized in FIGS. 2A-C and 3A-C, respectively. Table 7 provides IFN-γ/IL-4 and IL-12/IL-4 ratios for various compounds, which can be used as indicators of their ability to selectively stimulate Th1-type immune responses.

IL-12 = IL-12 levels in sera upon i.v. glycolipid administration to C57BL/6 mice (ELISA); assay type: in vivo; design: IL-12 levels, test 1 / IL-12 levels, test 2 / IL-12 levels, average / IL-12 levels, Total: unit not given here; conditions: for IL-12/IL-4 (B6): C57BL/6, ratio calculated from Tables 1-6; for IL-12 levels, average / IL-12 levels, test 1 / IL-12 levels, test 2 / IL-12 levels, Total: C57BL/6, serum; for IL-12 levels, Total: total over hours 0-72
Description: as §1

For `CCCCCCCCCCCCCC[C@@H](O)[C@@H](O)[C@H](CC[C@H]1O[C@H](CO)[C@H](O)[C@H](O)[C@H]1O)NC(=O)CCCCCCCCCCCCCCCCCCCOCCCCC` [A-5], the “IFN-γ/IL-4 (BALB/c)” value (IFN-γ) was 39, the “IFN-γ levels, average” value (IFN-γ; hour 0) was 2.5 and the “IFN-γ levels, test 1” value (IFN-γ; hour 0) was 27. The “IFN-γ levels, test 2” value (IFN-γ; hour 0) was 27, the “IFN-γ levels, average” value (IFN-γ; hour 2) was 101 and the “IFN-γ levels, test 1” value (IFN-γ; hour 2) was 118. The “IFN-γ levels, test 2” value (IFN-γ; hour 2) was 84, the “IFN-γ levels, average” value (IFN-γ; hour 6) was 1665 and the “IFN-γ levels, test 1” value (IFN-γ; hour 6) was 1650. The “IFN-γ levels, test 2” value (IFN-γ; hour 6) was 1680, the “IFN-γ levels, average” value (IFN-γ; hour 12) was 3566 and the “IFN-γ levels, test 1” value (IFN-γ; hour 12) was 4018. For the same compound, the “IFN-γ levels, test 2” value (IFN-γ; hour 12) was 3114, the “IFN-γ levels, average” value (IFN-γ; hour 24) was 9104.5 and the “IFN-γ levels, test 1” value (IFN-γ; hour 24) was 8738. For the same compound, the “IFN-γ levels, test 2” value (IFN-γ; hour 24) was 9471, the “IFN-γ levels, average” value (IFN-γ; hour 48) was 425.5 and the “IFN-γ levels, test 1” value (IFN-γ; hour 48) was 453. The “IFN-γ levels, test 2” value (IFN-γ; hour 48) was 398, the “IFN-γ levels, average” value (IFN-γ; hour 72) was 56 and the “IFN-γ levels, test 1” value (IFN-γ; hour 72) was 54. For the same compound, the “IFN-γ levels, test 2” value (IFN-γ; hour 72) was 58, the “IFN-γ levels, Total” value (IFN-γ) was 14922 and the “effect: higher/extended IFN-γ and IL-12 with much lower IL-4 compared to α-GalCer (KRN)” value (IFN-γ) was “particularly pronounced”. For the same compound, the “IL-12/IL-4 (B6)” value (IL-12) was 3.4, the “IL-12 levels, average” value (IL-12; hour 0) was 5 and the “IL-12 levels, test 1” value (IL-12; hour 0) was 5. The “IL-12 levels, test 2” value (IL-12; hour 0) was 5, the “IL-12 levels, average” value (IL-12; hour 2) was 115.5 and the “IL-12 levels, test 1” value (IL-12; hour 2) was 117. For the same compound, the “IL-12 levels, test 2” value (IL-12; hour 2) was 114, the “IL-12 levels, average” value (IL-12; hour 6) was 1346.5 and the “IL-12 levels, test 1” value (IL-12; hour 6) was 1351. The “IL-12 levels, test 2” value (IL-12; hour 6) was 1342, the “IL-12 levels, average” value (IL-12; hour 12) was 518.5 and the “IL-12 levels, test 1” value (IL-12; hour 12) was 535. The “IL-12 levels, test 2” value (IL-12; hour 12) was 502, the “IL-12 levels, average” value (IL-12; hour 24) was 87 and the “IL-12 levels, test 1” value (IL-12; hour 24) was 96. For the same compound, the “IL-12 levels, test 2” value (IL-12; hour 24) was 78, the “IL-12 levels, average” value (IL-12; hour 48) was 58 and the “IL-12 levels, test 1” value (IL-12; hour 48) was 52. The “IL-12 levels, test 2” value (IL-12; hour 48) was 64, the “IL-12 levels, average” value (IL-12; hour 72) was 49.5 and the “IL-12 levels, test 1” value (IL-12; hour 72) was 46. For the same compound, the “IL-12 levels, test 2” value (IL-12; hour 72) was 53 and the “IL-12 levels, Total” value (IL-12) was 2182.

`CCCCCCCCCCCCCCCCCC/C=C/CCCCCCCCC(=O)N[C@@H](/C=C/[C@H]1O[C@H](CO)[C@H](O)[C@H](O)[C@H]1O)[C@H](O)[C@H](O)CCCCCCCCCCCCCC` [A-1] was tested, and the “IFN-γ/IL-4 (BALB/c)” value (IFN-γ) was 37, the “IFN-γ levels, average” value (IFN-γ; hour 0) was 27 and the “IFN-γ levels, test 1” value (IFN-γ; hour 0) was 27. The “IFN-γ levels, test 2” value (IFN-γ; hour 0) was 27, the “IFN-γ levels, average” value (IFN-γ; hour 2) was 303 and the “IFN-γ levels, test 1” value (IFN-γ; hour 2) was 373. The “IFN-γ levels, test 2” value (IFN-γ; hour 2) was 233, the “IFN-γ levels, average” value (IFN-γ; hour 6) was 3990.5 and the “IFN-γ levels, test 1” value (IFN-γ; hour 6) was 2814. The “IFN-γ levels, test 2” value (IFN-γ; hour 6) was 5167, the “IFN-γ levels, average” value (IFN-γ; hour 12) was 5514 and the “IFN-γ levels, test 1” value (IFN-γ; hour 12) was 4881. For the same compound, the “IFN-γ levels, test 2” value (IFN-γ; hour 12) was 6147, the “IFN-γ levels, average” value (IFN-γ; hour 24) was 15250 and the “IFN-γ levels, test 1” value (IFN-γ; hour 24) was 16100. The “IFN-γ levels, test 2” value (IFN-γ; hour 24) was 14400, the “IFN-γ levels, average” value (IFN-γ; hour 48) was 484.5 and the “IFN-γ levels, test 1” value (IFN-γ; hour 48) was 441. For the same compound, the “IFN-γ levels, test 2” value (IFN-γ; hour 48) was 528, the “IFN-γ levels, average” value (IFN-γ; hour 72) was 62.5 and the “IFN-γ levels, test 1” value (IFN-γ; hour 72) was 62. The “IFN-γ levels, test 2” value (IFN-γ; hour 72) was 63, the “IFN-γ levels, Total” value (IFN-γ) was 25633 and the “effect: higher/extended IFN-γ and IL-12 with much lower IL-4 compared to α-GalCer (KRN)” value (IFN-γ) was “particularly pronounced”. The “IL-12/IL-4 (B6)” value (IL-12) was 2.9, the “IL-12 levels, average” value (IL-12; hour 0) was 5 and the “IL-12 levels, test 1” value (IL-12; hour 0) was 5. The “IL-12 levels, test 2” value (IL-12; hour 0) was 5, the “IL-12 levels, average” value (IL-12; hour 2) was 20 and the “IL-12 levels, test 1” value (IL-12; hour 2) was 40. For the same compound, the “IL-12 levels, test 2” value (IL-12; hour 2) was 0, the “IL-12 levels, average” value (IL-12; hour 6) was 2181.5 and the “IL-12 levels, test 1” value (IL-12; hour 6) was 1993. For the same compound, the “IL-12 levels, test 2” value (IL-12; hour 6) was 2370, the “IL-12 levels, average” value (IL-12; hour 12) was 2071 and the “IL-12 levels, test 1” value (IL-12; hour 12) was 1790. For the same compound, the “IL-12 levels, test 2” value (IL-12; hour 12) was 2352, the “IL-12 levels, average” value (IL-12; hour 24) was 54 and the “IL-12 levels, test 1” value (IL-12; hour 24) was 30. The “IL-12 levels, test 2” value (IL-12; hour 24) was 78, the “IL-12 levels, average” value (IL-12; hour 48) was 0 and the “IL-12 levels, test 1” value (IL-12; hour 48) was 0. For the same compound, the “IL-12 levels, test 2” value (IL-12; hour 48) was 0, the “IL-12 levels, average” value (IL-12; hour 72) was 0 and the “IL-12 levels, test 1” value (IL-12; hour 72) was 0. The “IL-12 levels, test 2” value (IL-12; hour 72) was 0 and the “IL-12 levels, Total” value (IL-12) was 4332.
